# Entries after “also recorded” stand apart in the source; their conditions may differ.
# Columns and labels:
# [1] = AVM0703 R/R NHL clinical trial, blood counts; assay type: in vivo, human
# [2] = system: CD56+γδTCR+ NKT-like cells
# Protocol: For characterisation of the induced/mobilized population of NKT-like cells (AVM-NKT) in humans, whole blood from human subjects was drawn in K2 EDTA Vacutainer tube (367862, BD Biosciences, NJ) and shipped to AVM Biotechnology at room temperature. 100 μl of whole blood was stained with the following antibodies: CD45 AF700 (2D1), CD16 APC (3G8), INKT PECy7 (6B11), CD8 PE (SK1), CD14 FITC (M5E2), CD56 BV650 (5.1H11), γδTCR BV510 (B1), CD19 BV421 (HIB19), NKp44 APC (P44-8) (all from Biolegend, San Diego, CA) and CD3 APCVio770 (BW264/56), (Miltenyi Biotec, San Jose, CA), 7-AAD, (Biolegend, San Diego CA) was included to distinguish the live and dead cells. Antibody staining was performed for 15 minutes at room temperature. Erythrocytes present in the sample were lysed using BD FACS lyse (BD Biosciences, San Diego CA) for 10 minutes at room temperature, then washed and resuspended in 300 μl 1×DPBS CMF. Healthy patient blood from BloodWorks (Seattle, WA), unstained and fluorescence minus one (FMO) were included as controls. 250 μl sample was analyzed on MACSQuant 16 (Serial #40150, Miltenyi Biotec, San Jose, CA) flow cytometer. Data was analyzed using Kaluza 2.1 (Beckman Coulter Lifesciences, Indianapolis, IN) software for different immune population. Data obtained from flow cytometry analyzed by Kaluza were combined to determine different cell populations gated from Live CD45 Lymphocytes: CD3+ T cell, CD8+ cytotoxic T cell, CD3+CD56+ (NKT cells) CD3-CD56+, CD3-CD56bright (NK cells) and CD3-CD19+ (B cells), CD3+γδTCR+ cells, CD3+γδTCR bright cells, CD3+iTCR+ cells, Live WBC CD3-CD16bright granulocytes, Live WBC CD3-CD14+ monocytes. Numbers were reported as % WBC and as cells per μl.
smiles,measurement,setting,value
"C[C@@H]1C[C@H]2[C@@H]3CCC4=CC(=O)C=C[C@]4(C)[C@@]3(F)[C@@H](O)C[C@]2(C)[C@@]1(O)C(=O)COP(=O)(O)O [AVM0703, dexamethasone sodium phosphate]","WBCs, lymphocytes, platelets and RBCs","[1]; AVM0703-001 dose-escalation phase, doses between 6 mg/kg and 18 mg/kg",not depleted
same,hemoglobin,"[1]; R/R MCL patient, after 9 mg/kg infusion",clinically significantly increased
same,Absolute lymphocyte counts (lymphocytosis),"[1]; patient 103-007 (mantle cell lymphoma), 12 mg/kg infusion, between day 4 and 7, 12 mg/kg",reduced to normal lymphocyte levels; also recorded: reduced lymphocytes
same,"monocytes, platelets, hematocrit and RBCs","[1]; patient 103-007, 12 mg/kg",spares normal blood cells; also recorded: not reduced
same,neutrophils,[1]; patients in the AVM0703-001 trial in R/R NHL,some evidence of increased neutrophils
same,% of the CD56+ cells positive for both γδTCR and iTCR,"[2]; lysed whole blood, FIG. 14",51%
same,"CD8 dim/-, % CD56+γδTCR+",[2]; representative subject,~98%
same,"CD14+, % CD56+γδTCR+",[2]; representative subject,67%
same,"CD16+, % CD56+γδTCR+",[2]; representative subject,86%
same,"CD19+, % CD56+γδTCR+",[2]; representative subject,85%
same,"NKp44 positive, % CD56+γδTCR+",[2]; representative subject,~97%
same,"iNKT positive, % CD56+γδTCR+",[2]; representative subject,~96%
same,"CD56+γδTCR+ cells, % of WBC","[2]; whole blood, within 30 minutes post infusion",1.64%
same,"CD16 and NKp46 expression, % of the AVM_NKT cells","[2]; γδTCR+iTCR+ quadrant, FIG. 14",~100%

# Reference: patent US20240358829A1, “Lymphocyte Population and Methods for Producing Same” (AVM Biotechnology, LLC, priority 2021, published 2024)
